Usually IC50 stands for the midpoint of a concentration-inhibition curve.

In this assay the target is T1, catalytic domain of human Bub1 (amino acids 704-1085) (Homo sapiens, UniProt O43683).
T1 construct: catalytic domain of human Bub1 (amino acids 704-1085); His6 (N); made in house; host or cells: Hi5 insect cells
T1 sequence (O43683 704-1085): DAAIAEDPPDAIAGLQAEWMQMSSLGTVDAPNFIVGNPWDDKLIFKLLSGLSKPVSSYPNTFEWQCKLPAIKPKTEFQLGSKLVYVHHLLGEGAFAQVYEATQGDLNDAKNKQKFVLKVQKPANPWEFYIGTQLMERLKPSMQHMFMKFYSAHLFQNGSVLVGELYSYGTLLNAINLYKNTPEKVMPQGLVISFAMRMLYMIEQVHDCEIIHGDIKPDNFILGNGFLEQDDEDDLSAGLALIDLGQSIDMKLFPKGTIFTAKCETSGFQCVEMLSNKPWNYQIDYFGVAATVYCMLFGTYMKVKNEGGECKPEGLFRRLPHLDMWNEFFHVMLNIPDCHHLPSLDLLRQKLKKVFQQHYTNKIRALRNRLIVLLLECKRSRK
The assay is described as follows: Bub1 kinase assay (TR-FRET). It is filed as biochemical. The settings on record: TR-FRET; ATP 10 μM, peptide substrate 1 μM; 60 min at 22° C.; average or median if tested more than once; read-out: Inhibition of Bub1 kinase IC50. The gist of the method:
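Eleven concentrations (0.1 nM–20 μM, duplicate) fitted by 4-parameter logistic for IC50. Read-out: EDTA-stopped TR-FRET (665/620 nm) detecting anti-phosphoserine binding to biotin-peptide (1 μM). Reaction used 10 μM ATP, 60 min at 22 °C, after 15 min compound preincubation with His-tagged human Bub1 704-1085.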
A general note: In TR-FRET formats the signal depends on donor and acceptor labels being close together.
In the case of `O=C(Nc1cc(-c2[nH]c3c(c2Nc2ccccc2)C(=O)CNC3)ccn1)c1cnn[nH]1` [Example 275, N-4-[4-Oxo-3-(phenylamino)-4,5,6,7-tetrahydro-1H-pyrrolo[2,3-c]pyridin-2-yl]pyridin-2-yl-1H-1,2,3-triazole-5-carboxamide], the IC50 was found to be 113 nM.

As for `Cc1ccc(F)cc1C(=O)Nc1cc(-c2[nH]c3c(c2Nc2ccccc2)C(=O)CN(C(=O)OC(C)(C)C)C3)ccn1` [Example 268, tert-Butyl 2-2-[(5-fluoro-2-methylbenzoyl)amino]pyridin-4-yl-4-oxo-3-(phenylamino)-1,4,5,7-tetrahydro-6H-pyrrolo[2,3-c]pyridine-6-carboxylate], the IC50 worked out at 58 nM. With `CC(C)(C)OC(=O)N1CC(=O)c2c([nH]c(-c3ccncc3OCC(F)F)c2Nc2ccccc2)C1` [Example 220, tert-Butyl 3-anilino-2-[3-(2,2-difluoroethoxy)pyridin-4-yl]-4-oxo-1,4,5,7-tetrahydro-6H-pyrrolo[2,3-c]pyridine-6-carboxylate], the half-maximal inhibitory concentration (IC50) amounted to 18 nM. As for `CC(=O)Nc1cc(-c2[nH]c3c(c2Nc2ccccc2)C(=O)CN(C(=O)CCF)C3)ccn1` [Example 211, N-4-[6-(3-Fluoropropanoyl)-4-oxo-3-(phenylamino)-4,5,6,7-tetrahydro-1H-pyrrolo[2,3-c]pyridin-2-yl]pyridin-2-ylacetamide], the IC50 was determined as 4 nM. In the case of `O=C1CN(S(=O)(=O)CC2CCOCC2)Cc2[nH]c(-c3ccncc3)c(Nc3ccccc3)c21` [Example 71, 3-(phenylamino)-2-(pyridin-4-yl)-6-[(tetrahydro-2H-pyran-4-ylmethyl)sulfonyl]-1,5,6,7-tetrahydro-4H-pyrrolo[2,3-c]pyridin-4-one] it was 8 nM; in that of `CN(C)S(=O)(=O)N1CC(=O)c2c([nH]c(-c3ccncc3OCC3CC3)c2Nc2ccccc2)C1` [Example 282, 2-[3-(Cyclopropylmethoxy)pyridin-4-yl]-N,N-dimethyl-4-oxo-3-(phenylamino)-1 4,5,7-tetrahydro-6H-pyrrolo[2,3-c]pyridine-6-sulfonamide], 12 nM. The figure for `CC(C)(C)OC(=O)N1CC(=O)c2c([nH]c(-c3ccnc(NC(=O)C4CC4(F)F)c3)c2Nc2ccccc2)C1` (racemic) [Example 121, tert-Butyl 2-[2-({[(1RS)-2,2-difluorocyclopropyl]carbonyl}amino)pyridin-4-yl]-4-oxo-3-(phenylamino)-1,4,5,7-tetrahydro-6H-pyrrolo[2,3-c]pyridine-6-carboxylate] is 10 nM.

As to `O=C1CN(S(=O)(=O)C2CCOCC2)Cc2[nH]c(-c3ccncc3)c(Nc3ccccc3)c21` [Example 70, 3-(phenylamino)-2-(pyridin-4-yl)-6-(tetrahydro-2H-pyran-4-ylsulfonyl)-1,5,6,7-tetrahydro-4H-pyrrolo[2,3-c]pyridin-4-one], the IC50 amounted to 7 nM. For `Cc1nccc(-c2[nH]c3c(c2Nc2ccccc2)C(=O)COC3)n1` [Example 15, 2-(2-Methylpyrimidin-4-yl)-3-(phenylamino)-1,7-dihydropyrano[3,4-b]pyrrol-4(5H)-one], the IC50 was determined as 1200 nM. The figure for `CC(C)S(=O)(=O)N1CC(=O)c2c([nH]c(-c3ccnc(NC(=O)[C@@H]4C[C@@H]4F)c3)c2Nc2ccccc2)C1` [Example 214, (1S,2S)-2-Fluoro-N-4-[4-oxo-3-(phenylamino)-6-(propan-2-ylsulfonyl)-4,5,6,7-tetrahydro-1H-pyrrolo[2,3-c]pyridin-2-yl]pyridin-2-ylcyclopropanecarboxamide] is 3 nM; for `O=C1CN(S(=O)(=O)c2ccccn2)Cc2[nH]c(-c3ccncc3)c(Nc3ccccc3)c21` [Example 74, 3-(phenylamino)-2-(pyridin-4-yl)-6-(pyridin-2-ylsulfonyl)-1,5,6,7-tetrahydro-4H-pyrrolo[2,3-c]pyridin-4-one] it is 6 nM.

The values are drawn from patent publication US20200216439A1, “HETERO-1,5,6,7-TETRAHYDRO-4H-INDOL-4-ONES” (BAYER PHARMA AKTIENGESELLSCHAFT, priority 2015, published 2020).
